Laboratory results: patent publication US20260027243A1, “AMPHIPHILIC COMPOUNDS FOR ATTENUATING NEUROTOXICITY OF AMYLOID-beta OLIGOMERS AND DIAGNOSTIC METHODS” (THE BOARD OF TRUSTEES OF THE UNIVERSITY OF ILLINOIS, priority 2022, published 2026)
Where two headings read alike, the source gives them in different places.

What was measured:
Aβ42 fibrils = molecular target: T1, Aβ42 fibrils (Homo sapiens, UniProt P05067); experiment: Fluorescence saturation binding assay with Aβ42 fibrils; conditions: read-out: Kd, Fibrils
T1 construct: commercial Aβ42 monomer powder (from GL biochem); purchased GL biochem
T1 sequence (P05067 672-713 limits assumed): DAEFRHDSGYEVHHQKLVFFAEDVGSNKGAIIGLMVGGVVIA
Method: Preparation of the Aβ42 Fibrils and Aβ42 Oligomers. Aβ42 fibrils: 1 mg of commercial Aβ42 monomer powder (from GL biochem) was dissolved in 1 mL 1,1,1,3,3,3-hexafluoro-2-propanol (HFIP) at room temperature and incubated for 1 h. The resulting solution was divided equally into two Eppendorf tubes. The solution in each Eppendorf tube containing 0.5 mg Aβ42 monomer was then evaporated overnight and dried by vacuum centrifuge to generate monomeric films. […] Aβ42 fibrils solution was prepared by dissolving the 0.5 mg monomeric films in 1.1 mL PBS buffer (with final DMSO concentration less than 1%) and stirring at 37° C. for 3 days.
(§1) In Vitro Saturation Binding Studies with Aβ42 Fibrils and Aβ42 Oligomers. To a solution of increasing concentrations of compounds, a fixed concentration of the generated aggregated Aβ42 fibrils or Aβ42 oligomers solutions (5 to 15 NM) was added to yield a total volume of 100 μL. Nonspecific binding was determined […]. The mixture was incubated for 15 min at room temperature. All fluorescence data were obtained on a SpectraMax M2e plate reader (Molecular Devices). The fluorescent intensity was measured at the corresponding emission wavelength of each compound, and the Kd binding curves were generated by GraphPad Prism 8.0 with one site-specific binding model. Equation: Y=Bmax*X/(Kd+X).

Aβ42 oligomers = molecular target: T2, Aβ42 oligomers (Homo sapiens, UniProt P05067); experiment: Fluorescence saturation binding assay with Aβ42 oligomers; conditions: for Kd: read-out: Kd, Oligomers; for binding affinity to oligomers compared with fibrils (Kd comparison): amphiphilic ZY compounds
T2 construct: commercial Aβ42 monomer powder (from GL biochem); purchased GL biochem
T2 sequence (P05067 672-713 limits assumed): as above
Method: Aβ42 oligomers: The 0.5 mg monomeric films were dissolved in 1.1 mL PBS buffer (with final DMSO concentration less than 1%) and incubated at 4° C. overnight. The resulting solution was then centrifuged at 3000 rpm for 15 mins to remove the insoluble aggregates. The clear supernatant was then used for the following experiments. Aβ42 oligomers concentration was checked by measuring the absorbance of the supernatant at 280 nm.
as §1

[1] = Log D by octanol-PBS partition; assay type: physicochemical; conditions: DCM compounds
Method: Log D measurements. The Log D value was measured following a published procedure using slight modifications. In general, compounds in 0.5 mL octanol was subjected to partition with 0.5 mL octanol-saturated PBS. The whole mixture was stirred vigorously for 5 min, and centrifuged at 2,000 rpm for 5 min. The top octanol layer was separated for later fluorescence measurement. The remaining PBS layer was partitioned with 0.5 mL PBS-saturated octanol, and the second top octanol layer was then separated after vigorous stirring and centrifuging at 2,000 rpm for another 5 min. The two octanol layers' fluorescence spectra were recorded. The log D value was calculated by the fluorescence intensity ratio at the compounds' emission wavelength for the above two octanol extractions.

[2] = test system: Cu^2+-Aβ42-induced toxicity in Neuro2A cells; experiment: Cu2+-Aβ42-induced toxicity, Alamar blue cell viability; assay type: cell-based, mouse; conditions: [Aβ42]=40 μM, [Cu^2+]=40 μM, compound 10 μM (ZY-12-OMe 5 μM)
Method: FIG. 6. Cell viability results upon incubation of Neuro2A cells with monomeric Aβ42 in the presence or absence of metal ions and amphiphilic compounds. Concentrations: [Aβ42]=40 μM, [Cu^2+]=40 μM, [ZY-12-MT]=[ZY-15-OMe]=[ZY-15-MT]=[ZY-17-MT]=[ZY-5-OMe]=[ZY-5-MT]=[ZY-5-DT]=10 μM, [ZY-12-OMe]=5 μM. The error bars represent the standard deviation from five independent experiments, and the statistical analysis was evaluated according to one-way ANOVA (*p<0.05).
For the Cu^2+-Ap-induced toxicity studies, cells treated were monomeric Aβ42, Cu^2+, monomeric Aβ42+Cu^2+, and monomeric Aβ42+Cu^2++ compounds, respectively. After 40 h incubation, Alamar Blue solution (10 μL) was added, and the cells were incubated for another 90 min at 37° C. The fluorescence intensity of each well was measured at 590 nm (excitation wavelength=560 nm).

[3] = test system: mouse neuroblastoma N2a cells; experiment: Alamar blue cytotoxicity in N2a cells; assay type: cell-based; conditions: for relative cytotoxicity: comparison among compounds
Method: Cytotoxicity Studies. Alamar Blue assay was chosen for the cytotoxicity studies. Mouse neuroblastoma Neuro2A (N2A) cells were grown with DMEM/10% FBS in a petri dish at 37° C. in a humidified atmosphere with 5% CO2. Then N2A cells were seeded in a 96-well plate (1.0×10^4/well). After 24 h incubation, cell media was changed to DMEM/N-2, and N2A cells were incubated for another 1 h. Then the cells were treated with different concentrations of compounds for 40 h, Alamar Blue solution (10 μL) was added, and the cells were incubated for another 90 min at 37° C. The fluorescence intensity of each well was measured at 590 nm (excitation wavelength=560 nm).

Aβ oligomers = conditions: cited from earlier work

Row | Compound | Kd (Aβ42 fibrils; Table 1, amphiphilic compounds) | Kd (Aβ42 oligomers; Table 1, amphiphilic compounds) | binding affinity to oligomers compared with fibrils (Kd comparison) (Aβ42 oligomers) | other results
1 | CN1CCN(C)CCN(Cc2cc(/C=C/C3=CC(=C(C#N)C#N)c4ccccc4O3)cc(CN3CCN(C)CCN(C)CC3)c2O)CC1 [DCM-OH-1-DT, (E)-2-(2-(3,5-bis((4,7-dimethyl-1,4,7-triazonan-1-yl)methyl)-4-hydroxystyryl)-4H-chromen-4-ylidene)malononitrile] |  |  |  | Kd (Aβ42 fibrils; Table 3, DCM compounds): 1850 ± 190 nM; Kd (Aβ42 oligomers; Table 3, DCM compounds): 2880 ± 540 nM; logD [1]: 1.51 ± 0.018
2 | N#CC(C#N)=C1C=C(/C=C/c2ccc(O)cc2)Oc2ccccc21 [DCM-OH-1] |  |  |  | logD [1]: 1 ± 0.04
3 | CN1CCN(C)CCN(Cc2cc(/C=C/c3ccc(-c4ccc(C=O)cc4)s3)cc(CN3CCN(C)CCN(C)CC3)c2O)CC1 [ZY-15-DT, (E)-4-(5-(3,5-bis((4,7-dimethyl-1,4,7-triazonan-1-yl)methyl)-4-hydroxystyryl)thiophen-2-yl)benzaldehyde] | 1270 ± 100 nM | 4550 ± 320 nM |  | 
4 | COc1cc(OC)cc(-c2ccc(/C=C/c3ccc(O)c(CN4CCN(C)CCN(C)CC4)c3)cc2)c1 [ZY-17-MT, (E)-4-(2-(3′,5′-dimethoxy-[1,1′-biphenyl]-4-yl)vinyl)-2-((4,7-dimethyl-1,4,7-triazonan-1-yl)methyl)phenol] | 940 ± 70 nM | 2080 ± 340 nM |  | 
5 | CN1CCN(C)CCN(Cc2cc(-c3ccc(/C=C/c4ccc(N(C)C)cc4)s3)ccc2O)CC1 [ZY-12-MT, (E)-2-((4,7-dimethyl-1,4,7-triazonan-1-yl)methyl)-4-(5-(4-(dimethylamino)styryl)thiophen-2-yl)phenol] | 4190 ± 870 nM | 6270 ± 1010 nM |  | effect on cell viability under Cu^2+-Aβ42 toxicity [2]: significantly increase cell viability
6 | COc1cc(/C=C/c2ccc(-c3ccc(N(C)C)cc3)s2)cc(CN2CCN(C)CCN(C)CC2)c1O [ZY-5-OMe, (E)-2-((4,7-dimethyl-1,4,7-triazonan-1-yl)methyl)-4-(2-(5-(4-(dimethylamino)phenyl)thiophen-2-yl)vinyl)-6-methoxyphenol] | 680 ± 100 nM | 1040 ± 150 nM |  | effect on cell viability under Cu^2+-Aβ42 toxicity [2]: significantly increase cell viability
7 | COc1cc(-c2ccc(/C=C/c3ccc(N(C)C)cc3)s2)cc(CN2CCN(C)CCN(C)CC2)c1O [ZY-12-OMe, (E)-2-((4,7-dimethyl-1,4,7-triazonan-1-yl)methyl)-4-(5-(4-(dimethylamino)styryl)thiophen-2-yl)-6-methoxyphenol] | 390 ± 40 nM | 320 ± 40 nM | higher binding affinity to oligomers over fibrils | cell viability ([3]; at 5 μM): more than 75%; cell viability ([3]; at 10 μM): less than 50%; relative cytotoxicity [3]: higher citotoxicity than others
8 | COc1cc(OC)cc(-c2ccc(/C=C/c3cc(CN4CCN(C)CCN(C)CC4)c(O)c(OC)c3)cc2)c1 [ZY-17-OMe, (E)-4-(2-(3′,5′-dimethoxy-[1,1′-biphenyl]-4-yl)vinyl)-2-((4,7-dimethyl-1,4,7-triazonan-1-yl)methyl)-6-methoxyphenol] | 180 ± 20 nM | 120 nM | higher binding affinity to oligomers over fibrils | relative cytotoxicity [3]: the highest toxicity
9 | CCN(CC)c1ccc(/C=C/C2=[O+][B-](F)(F)OC(/C=C/c3ccc(N(CC)CC)nc3)=C2CCCOc2c(C)cccc2C)cn1 [CRANAD-102] |  |  |  | Kd (Aβ oligomers; reported values): 7.5 nM
10 | CN1CCN(C)CCN(Cc2cc(-c3ccc(/C=C/c4ccc(N(C)C)cc4)s3)cc(CN3CCN(C)CCN(C)CC3)c2O)CC1 [ZY-12-DT, (E)-2,6-bis((4,7-dimethyl-1,4,7-triazonan-1-yl)methyl)-4-(5-(4-(dimethylamino)styryl)thiophen-2-yl)phenol] | 1380 ± 240 nM | 670 ± 150 nM | higher binding affinity to oligomers over fibrils | relative cytotoxicity [3]: higher citotoxicity than others
11 | CN1CCN(C)CCN(Cc2cc(/C=C/c3ccc(-c4ccc(N(C)C)cc4)s3)cc(CN3CCN(C)CCN(C)CC3)c2O)CC1 [ZY-5-DT, (E)-2,6-bis((4,7-dimethyl-1,4,7-triazonan-1-yl)methyl)-4-(2-(5-(4-(dimethylamino)phenyl)thiophen-2-yl)vinyl)phenol] | 1670 ± 190 nM | 2090 ± 360 nM |  | 
12 | CN1CCN(C)CCN(Cc2cc(/C=C/c3ccc(-c4ccc(N(C)C)cc4)s3)ccc2O)CC1 [ZY-5-MT, (E)-2-((4,7-dimethyl-1,4,7-triazonan-1-yl)methyl)-4-(2-(5-(4-(dimethylamino)phenyl)thiophen-2-yl)vinyl)phenol] | 1820 ± 130 nM | 460 ± 60 nM | higher binding affinity to oligomers over fibrils | selectivity to Aβ oligomers over Aβ fibrils (Aβ42 oligomers; ratio of Kd values): 3.9 times
13 | CN1CCN(C)CCN(Cc2cc(/C=C/C3=CC(=C(C#N)C#N)c4ccccc4O3)ccc2O)CC1 [DCM-OH-1-MT, (E)-2-(2-(3-((4,7-dimethyl-1,4,7-triazonan-1-yl)methyl)-4-hydroxystyryl)-4H-chromen-4-ylidene)malononitrile] |  |  |  | Kd (Aβ42 fibrils; Table 3, DCM compounds): 580 ± 70 nM; Kd (Aβ42 oligomers; Table 3, DCM compounds): 670 ± 190 nM; logD [1]: 1.65 ± 0.06
14 | COc1cc(OC)cc(-c2ccc(/C=C/c3cc(CN4CCN(C)CCN(C)CC4)c(O)c(CN4CCN(C)CCN(C)CC4)c3)cc2)c1 [ZY-17-DT, (E)-4-(2-(3′,5′-dimethoxy-[1,1′-biphenyl]-4-yl)vinyl)-2,6-bis((4,7-dimethyl-1,4,7-triazonan-1-yl)methyl)phenol] | 2250 ± 460 nM | 1030 ± 200 nM | higher binding affinity to oligomers over fibrils | relative cytotoxicity [3]: higher citotoxicity than others
15 | CCOc1cccc(C=Cc2cc(C)c3n2[B-](F)(F)[N+]2=C(CCC(=O)OCC(Cl)(Cl)Cl)C=CC2=C3)c1O [BD-Oligo] |  |  |  | Kd (Aβ oligomers; reported oligomer-selective probes): 400 nM
